From US20030170740A1, “Characterized E2IG3 protein for diagnosis and treatment of proliferative diseases” (priority 2001, published 2003)

Tested on: MCF-7 cells
Assay: High dose E2 treatment of MCF-7 cells (apoptosis)
Assay type: cell-based, human
Settings: high dose E2 treatment of MCF-7 cells

## C[C@]12CC[C@@H]3c4ccc(O)cc4CC[C@H]3[C@@H]1CC[C@@H]2O [E2, 17B-estridiol]
  Effect of high dose E2 on cell fate (apoptosis): committed to apoptotic pathways
